The values that follow come from article PMC3871589, “Evaluation of STAT3 Signaling in ALDH+ and ALDH+/CD44+/CD24− Subpopulations of Breast Cancer Cells” (PLoS ONE, 2013).

Type in all cases: cell-based, human
The test system of experiment [1] is STAT3 phosphorylation (Y705). The experiment is described as follows: Western blot of STAT3 phosphorylation in ALDH+ cells. To be noted: LLL12 5 µmol/L or Stattic 10 µmol/L 24 hours, ShRNA 48 hours then puromycin. The procedure: (§1) The ALDEFLUOR kit (StemCell Technologies) was used to isolate the population with high ALDH enzymatic activity as previously described. Briefly, cells were trypsinized to single cells using 0.05% trypsin and subsequently suspended in ALDEFLUOR assay buffer containing ALDH substrate (BAAA, 1 µmol/l per 1×10^6 cells) and then incubated for 40 minutes at 37°C. For each sample, an aliquot of cells was stained under identical conditions with 15 mmol/L diethylaminobenzaldehyde (DEAB), a specific ALDH inhibitor, as an ALDH^− control. Anti-human PE-CD24 and PE-Cy5-CD44 antibody (BioLegend) were used for CD44/CD24 identification and to separate ALDH^+/CD44^+/CD24^− and ALDH^−/CD44^+/CD24^+ cells when combined with ALDH staining. Analysis was performed using a FACStarPLUS (Becton Dickinion) flow cytometer. To assess the effect of STAT3 inhibitors on the subpopulation of ALDH^+ cells, un-separated breast cancer cells were treated with 5 µmol/L of LLL12 or 10 µmol/L Stattic for 24 hours prior to performing the ALDEFLUOR assay.
After sorting by flow cytometry, ALDH^+ and ALDH^+/CD44^+/CD24^− stem-like cells were cultured in serum-free stem cell medium in ultra-low attachment six-well plates (Corning) to maintain cancer stem cell characteristics. […]
For orientation: Immunoblotting shows a protein as a band on a membrane.

Experiment [2] relates to ALDH+ subpopulation in MDA-MB-231, SUM159, and SK-BR3 cancer cells. The experiment is described as follows: ALDEFLUOR assay, percentage of ALDH+ subpopulation. The note with it: un-separated MDA-MB-231, SUM159, SK-BR3; LLL12 5 µmol/L or Stattic 10 µM, 24 hours. As for the experimental part:
as §1

The next experiment has as its system ERK1/2 phosphorylation. Nature of the experiment: ERK1/2 phosphorylation in ALDH+ cells. To be noted: ALDH+ breast cancer stem-like cells; 10 µmol/L, 24 hours. As for the experimental part: After sorting by flow cytometry, ALDH^+ and ALDH^+/CD44^+/CD24^− stem-like cells were cultured in serum-free stem cell medium in ultra-low attachment six-well plates (Corning) to maintain cancer stem cell characteristics. ALDH^−, ALDH^−/CD44^+/CD24^+cells and un-separated cells were cultured in regular medium and replaced with identical stem cell medium for three days before being harvested. To assess the effects of STAT3 inhibitors, ALDH^+ and ALDH^+/CD44^+/CD24^− subpopulations of breast cancer cells were treated with LLL12 (5 µmol/L) of or static (10 µmol/L) for 24 hours. STAT3, or control GFP shRNA lentivirus (CTL ShRNA) was introduced into ALDH^+ breast cancer stem-like cells for 48 hours, then followed by selection with puromycin (0.2 µg/ml) for 72 hours. Antibodies (Cell Signaling Tech.) against phospho-specific STAT3 (Tyrosine 705) (P-STAT3, Y705), ERK1/2 (Threonine 202/Tyrosine 204), cleaved Poly (ADP-ribose) polymerase (PARP), ALDH1, cleaved caspase-3, and GAPDH were used for western blots.

The subject of experiment [3] is ALDH+ subpopulations of SK-BR-3, MDA-MB-231, and SUM159. The experiment is described as follows: Tumorsphere formation, ALDH+ subpopulations. To be noted: 2.5–10 µmol/L, 10 to 15 days. As for the experimental part:
ALDH^+ and ALDH^+/CD44^+/CD24^− cells were plated as single cells in ultra-low attachment six-well plates at a density of 250, 500, 1000 or 50,000 viable cells/well as previously described. On the second day after seeding, the ALDH^+ cancer cells were treated with 2.5–10 µmol/L of LLL12 or Stattic. For tumorsphere forming capacity assay, ALDH^+ or ALDH^− cells were plated as single cells in ultra-low attachment six-well plates at a density of 250, 500 or 1000 viable cells/well. Tumorsphere growth was observed under a microscope 10 to 15 days later.

The test system of experiment [4] is ALDH+ subpopulation from MDA-MB-231, SUM159, and SK-BR3 cells. Nature of the experiment: MTT cell viability assay, ALDH+ subpopulation. To be noted: 1 to 10 µmol/L 72 hours, ShRNA 48 hours. The procedure:
(§2) The breast cancer cells were seeded in 96-well plates (3,000 cells/well) in triplicates in a serum-free mammary epithelial basal medium. The following day, cancer cells were treated with 1 to 10 µmol/L of LLL12 or Stattic for 72 hours, STAT3 ShRNA or control GFP shRNA lentivirus (CTL ShRNA) for 48 hours. MTT (Thiazolyl Blue Tetrazolium Bromide, Sigma-Aldrich) assay was used to determine the cell viability.
For orientation: Tetrazolium dyes change colour on reduction, which living cells bring about.

Another experiment has as its system ALDH− cells. The experiment is described as follows: MTT cell viability assay, ALDH− subpopulation. To be noted: Figure S4. As for the experimental part: as §2

On to `O=[N+]([O-])c1ccc2c(c1)S(=O)(=O)C=C2` [Stattic, reference compound], for which, in experiment [1], the “STAT3 phosphorylation in ALDH+ cells” value is “reduced”. For the same compound, the “ALDH+ subpopulation (percentage)” value in experiment [2] is “decreased”. Further, in the experiment with ERK1/2 phosphorylation, the ERK1/2 phosphorylation result is reported as “not”. Also, in experiment [3], the tumorsphere formation entry is given as “suppress”. For the same compound, the “cell viability of the ALDH+ subpopulation” value in experiment [4] is recorded as “inhibit”. Further, the “effects against the ALDH− cells (cell viability)” value in the experiment with ALDH− cells is recorded as “some inhibitory effects”.
